Measurements published in patent US20260083864A1, “CONTRAST AGENTS FOR USE IN DIAGNOSTIC COMPUTED TOMOGRAPHY IMAGING” (Bayer Aktiengesellschaft, priority 2022, published 2026).

Experiments:
OATP1B3 = molecular target: T1, OATP1B3 (Homo sapiens, UniProt Q9NPD5); experiment: Uptake into stable transfected OATP1B3 HEK 293 cells; format: cell-based; settings: for Inhibition Rifampicine: uptake into OATP1B3-HEK 293 cells; for Uptake into OATP1B3-HEK 293 cells: 40 min incubation, relative to RC1 (Gd-EOB-DTPA)
T1 sequence (Q9NPD5 1-702): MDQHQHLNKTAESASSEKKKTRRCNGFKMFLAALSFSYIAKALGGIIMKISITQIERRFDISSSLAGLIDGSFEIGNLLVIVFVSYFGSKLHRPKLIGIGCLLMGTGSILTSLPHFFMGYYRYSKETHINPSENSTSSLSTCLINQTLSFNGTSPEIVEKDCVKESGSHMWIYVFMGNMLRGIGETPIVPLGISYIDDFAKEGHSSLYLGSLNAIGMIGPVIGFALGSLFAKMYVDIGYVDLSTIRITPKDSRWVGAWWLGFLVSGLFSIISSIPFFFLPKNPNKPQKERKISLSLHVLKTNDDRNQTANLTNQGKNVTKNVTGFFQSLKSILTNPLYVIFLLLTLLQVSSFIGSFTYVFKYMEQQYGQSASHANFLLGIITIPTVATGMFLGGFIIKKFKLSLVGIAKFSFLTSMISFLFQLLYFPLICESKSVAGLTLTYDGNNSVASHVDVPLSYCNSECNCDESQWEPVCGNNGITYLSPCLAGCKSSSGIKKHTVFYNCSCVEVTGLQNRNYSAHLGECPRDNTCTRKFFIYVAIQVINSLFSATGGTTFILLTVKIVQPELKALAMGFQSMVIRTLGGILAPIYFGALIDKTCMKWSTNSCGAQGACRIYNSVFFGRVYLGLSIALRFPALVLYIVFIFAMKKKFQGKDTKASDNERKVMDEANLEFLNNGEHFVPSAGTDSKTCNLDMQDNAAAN
Method in brief: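 HEK 293 cells stably transfected with human OATP1B3 were incubated for 40 min with test items at 100 μM final in transport buffer, in triplicate, then washed with cold PBS. Gadoxetate (Gd-EOB-DTPA) served as the reference standard on the same plate.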

[1] = Complex stability (transmetallation) against Zn2+ in phosphate buffer; settings: 72 hours, 2.5 mM Zn^2+, 26 mM phosphate buffer, 37° C., pH 7.4
Source text: If test compounds are instable under these conditions, transmetallation during this test would lead to the formation of the Zn^2+ complex of the test item, while Gd^3+ is released and precipitated as highly insoluble GdPO4.

[2] = tested on: freshly isolated rat hepatocytes; experiment: Uptake into freshly isolated rat hepatocytes; settings: for Uptake rat hepatocytes: 100 μmol Gd/L, 10 min, 37° C., relative to RC1 (Gd-EOB-DTPA); for Inhibition Rifampicine: rat hepatocyte uptake, test item and Rifampicine 1:1, each 100 μM
OATP1B1 = molecular target: T2, OATP1B1 (Homo sapiens, UniProt Q9Y6L6); experiment: Uptake into stable transfected OATP1B1 HEK 293 cells; format: cell-based; settings: for Inhibition Rifampicine: uptake into OATP1B1-HEK 293 cells; for Uptake into OATP1B1-HEK 293 cells: 40 min incubation, relative to RC1 (Gd-EOB-DTPA)
T2 sequence (Q9Y6L6 1-691): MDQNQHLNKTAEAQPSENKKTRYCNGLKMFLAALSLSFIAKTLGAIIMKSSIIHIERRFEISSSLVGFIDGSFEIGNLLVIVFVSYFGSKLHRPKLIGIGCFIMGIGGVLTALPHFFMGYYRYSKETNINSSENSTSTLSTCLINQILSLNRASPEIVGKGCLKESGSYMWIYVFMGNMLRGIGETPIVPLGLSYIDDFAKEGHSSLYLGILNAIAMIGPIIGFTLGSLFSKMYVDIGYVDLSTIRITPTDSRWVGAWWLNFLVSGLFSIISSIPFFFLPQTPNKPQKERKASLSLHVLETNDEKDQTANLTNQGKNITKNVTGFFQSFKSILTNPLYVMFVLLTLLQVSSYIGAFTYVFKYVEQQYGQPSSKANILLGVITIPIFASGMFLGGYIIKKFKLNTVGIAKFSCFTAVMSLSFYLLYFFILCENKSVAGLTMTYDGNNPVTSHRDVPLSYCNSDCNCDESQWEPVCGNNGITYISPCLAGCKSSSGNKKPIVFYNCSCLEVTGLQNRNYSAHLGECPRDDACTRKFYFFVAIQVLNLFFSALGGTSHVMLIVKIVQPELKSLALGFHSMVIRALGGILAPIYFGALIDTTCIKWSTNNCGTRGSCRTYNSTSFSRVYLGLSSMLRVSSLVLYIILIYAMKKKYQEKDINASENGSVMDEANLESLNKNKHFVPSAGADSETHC
Method in brief: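 Stably transfected OATP1B1 HEK293 cells incubated 40 min without shaking with test item at 100 µM final in transport buffer, in triplicate. Cells then washed with cold PBS; gadoxetate run on the same plate as reference.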

[3] = Water solubility in aqueous buffer; settings: aqueous buffer 10 mM Tris-HCl, pH 7.4, 20° C.
Procedure: The solid compounds were added stepwise to the buffer solution. More substance is added once all the suspended material is dissolved until an equilibrium between undissolved and dissolved substance is reached. The suspension was mixed using a shaker (Heidolph Reax 2000) and treated 5 min in an ultrasound bath (Bandelin, Sonorex Super RK255H).

[4] = Relaxivity measurements at 1.41 T in water; format: physicochemical; settings: 37° C., normalized to Gd
Method in brief: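 T1 by inversion recovery and T2 by CPMG at 1.41 T (60 MHz), 37° C, relaxation delay ≥5×T1. Three Gd concentrations between 0.05 and 2 mM; relaxivities derived from measured relaxation rates in water.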

[5] = Relaxivity measurements at 1.41 T in human plasma; format: physicochemical; settings: 37° C., normalized to Gd
Method in brief: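 T1 determined by inversion recovery (8 inversion-time steps) and T2 by CPMG sequence, both with relaxation delay ≥5×T1. Each relaxivity used three Gd concentrations between 0.05 and 2 mM. Relaxivities were derived from relaxation rates measured in water and plasma.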

[6] = Partition coefficient (log P butanol/buffer); format: physicochemical; settings: 1-butanol / 50 mM Tris-HCl, pH 7.4, room temperature

Question: What does the source list for `CCOCCOCCOc1ccc(CCCC(C(=O)O)N2CCN(C(CO)C(=O)[O-])CCN(C(CO)C(=O)[O-])CCN(C(CO)C(=O)[O-])CC2)cc1.[Gd+3]` (stereo not drawn) [Example 17, gadolinium-2,2′,2″-{10-[1-carboxy-4-{4-[2-(2-ethoxyethoxy)ethoxy]phenyl}butyl]-1,4,7,10-tetraazacyclododecane-1,4,7-triyl}tris(3-hydroxypropanoate)]?
Answer: Inhibition Rifampicine (OATP1B3): 98 % inhibition; Transmetallation stability [1]: 98%; Uptake rat hepatocytes [2]: 71 % of RC1; Inhibition Rifampicine [2]: 91 % inhibition; Inhibition Rifampicine (OATP1B1): 88 % inhibition; Solubility [3]: >0.217 mol/L; r1 water [4]: 5.3 L/mmol/s; r1 human plasma [5]: 10.1 L/mmol/s

Question: What does the source list for `CCOCCOCCOc1ccc(CCCC(C(=O)O)N2CCN(CC(=O)[O-])CCN(CC(=O)[O-])CCN(CC(=O)[O-])CC2)cc1.[Gd+3]` (stereo not drawn) [Example 25, gadolinium 2,2′,2″-{10-[1-carboxy-4-{4-[2-(2-ethoxyethoxy)ethoxy]phenyl}butyl]-1,4,7,10-tetraazacyclododecane-1,4,7-triyl}triacetate]?
Answer: Log P (partition coefficient butanol/buffer) [6]: −1.00; Uptake into OATP1B3-HEK 293 cells (OATP1B3): 58 % of RC1; Inhibition Rifampicine (OATP1B3): 93 % inhibition; Transmetallation stability [1]: 103%; Uptake rat hepatocytes [2]: 82 % of RC1; Inhibition Rifampicine [2]: 96 % inhibition; Uptake into OATP1B1-HEK 293 cells (OATP1B1): 30 % of RC1; Inhibition Rifampicine (OATP1B1): 75 % inhibition; Solubility [3]: 0.306 mol/L; r1 water [4]: 4.6 L/mmol/s; r1 human plasma [5]: 7.5 L/mmol/s

Question: For `CCOCCOc1ccc(CC(C(=O)O)N2CCN(CC(=O)[O-])CCN(C(COC)C(=O)[O-])CCN(CC(=O)[O-])CC2)cc1.[Gd+3]` (stereo not drawn) [Example 38, gadolinium 2-[7-{1-carboxy-2-[4-(2-ethoxyethoxy)phenyl]ethyl}-4,10-bis(carboxylatomethyl)-1,4,7,10-tetraazacyclododecan-1-yl]-3-methoxypropanoate], which “Log P (partition coefficient butanol/buffer)” value [6] is on record?
Answer: Its value is −1.41.

Question: What about the “Uptake into OATP1B3-HEK 293 cells” value (OATP1B3) of the same compound?
Answer: Its value is 24 % of RC1.

Question: What about the “Inhibition Rifampicine” value (OATP1B3) of the same compound?
Answer: The value was 94 % inhibition.

Question: And the Transmetallation stability [1]?
Answer: The Transmetallation stability was 97%.

Question: And the Uptake rat hepatocytes [2]?
Answer: The Uptake rat hepatocytes was 62 % of RC1.

Question: And the “Inhibition Rifampicine” value [2]?
Answer: Its value is 94 % inhibition.

Question: What about the “Uptake into OATP1B1-HEK 293 cells” value (OATP1B1) of the same compound?
Answer: Its value is 137 % of RC1.

Question: And the “Inhibition Rifampicine” value (OATP1B1)?
Answer: Its value is 65 % inhibition.

Question: And the Solubility [3]?
Answer: The Solubility was greater than 0.103 mol/L.

Question: What about the r1 water [4] of the same compound?
Answer: Its r1 water is 5.6 L/mmol/s.

Question: And the r1 human plasma [5]?
Answer: Its r1 human plasma is 7.5 L/mmol/s.

Question: For `CCOCCOCCOc1ccc(CC(C(=O)O)N2CCN(CC(=O)[O-])CCN(C(C)C(=O)[O-])CCN(CC(=O)[O-])CC2)cc1.[Gd+3]` (single isomer, unassigned) [Example 6, gadolinium 2-[7-(1-carboxy-2-{4-[2-(2-ethoxyethoxy)ethoxy]phenyl}ethyl)-4,10-bis(carboxylatomethyl)-1,4,7,10-tetraazacyclododecan-1-yl]propanoate], which “Log P (partition coefficient butanol/buffer)” value [6] is on record?
Answer: The value was −1.44.

Question: And the Transmetallation stability [1]?
Answer: Its Transmetallation stability is 102%.

Question: What about the Uptake rat hepatocytes [2] of the same compound?
Answer: Its Uptake rat hepatocytes is 62 % of RC1.

Question: And the “Inhibition Rifampicine” value [2]?
Answer: The value was 96 % inhibition.

Question: And the Solubility [3]?
Answer: The Solubility was greater than 0.217 mol/L.

Question: What about the r1 water [4] of the same compound?
Answer: Its r1 water is 4.3 L/mmol/s.

Question: And the r1 human plasma [5]?
Answer: The r1 human plasma was 6.6 L/mmol/s.

Question: Which results are given for `CCCOc1ccc(CC(C(=O)O)N2CCN(CC(=O)[O-])CCN(CC(=O)[O-])CCN(CC(=O)[O-])CC2)cc1.[Gd+3]` (stereo not drawn) [Example 48, gadolinium 2,2′,2″-{10-[1-carboxy-2-(4-propoxyphenyl)ethyl]-1,4,7,10-tetraazacyclododecane-1,4,7-triyl}triacetate]?
Answer: Uptake into OATP1B3-HEK 293 cells (OATP1B3): 11 % of RC1; Inhibition Rifampicine (OATP1B3): 81 % inhibition; Transmetallation stability [1]: 99%; Uptake rat hepatocytes [2]: 77 % of RC1; Inhibition Rifampicine [2]: 98 % inhibition; Uptake into OATP1B1-HEK 293 cells (OATP1B1): 240 % of RC1; Inhibition Rifampicine (OATP1B1): 92 % inhibition; Solubility [3]: 0.016 mol/L; r1 water [4]: 4.0 L/mmol/s; r1 human plasma [5]: 9.3 L/mmol/s

Question: What does the source list for `CCOCCOCCOc1ccc(CC(C(=O)O)N2CCN(C(CO)C(=O)[O-])CCN(C(CO)C(=O)[O-])CCN(C(CO)C(=O)[O-])CC2)cc1.[Gd+3]` (stereo not drawn) [Example 22, gadolinium 2,2′,2″-{10-[1-carboxy-2-{4-[2-(2-ethoxyethoxy)ethoxy]phenyl}ethyl]-1,4,7,10-tetraazacyclododecane-1,4,7-triyl}tris(3-hydroxypropanoate)]?
Answer: Uptake into OATP1B3-HEK 293 cells (OATP1B3): 46 % of RC1; Inhibition Rifampicine (OATP1B3): 96 % inhibition; Transmetallation stability [1]: 96%; Uptake rat hepatocytes [2]: 41 % of RC1; Inhibition Rifampicine [2]: 83 % inhibition; Uptake into OATP1B1-HEK 293 cells (OATP1B1): 77 % of RC1; Inhibition Rifampicine (OATP1B1): 51 % inhibition; Solubility [3]: >0.308 mol/L; r1 water [4]: 5.4 L/mmol/s; r1 human plasma [5]: 7.7 L/mmol/s

Question: Which results are given for `CCCOc1ccc(CCC(C(=O)O)N2CCN(CC(=O)[O-])CCN(CC(=O)[O-])CCN(CC(=O)[O-])CC2)cc1.[Gd+3]` (stereo not drawn) [Example 24, gadolinium 2,2′,2″-{10-[1-carboxy-3-(4-propoxyphenyl)propyl]-1,4,7,10-tetraazacyclododecane-1,4,7-triyl}triacetate]?
Answer: Log P (partition coefficient butanol/buffer) [6]: −0.71; Uptake into OATP1B3-HEK 293 cells (OATP1B3): 17 % of RC1; Inhibition Rifampicine (OATP1B3): 94 % inhibition; Uptake rat hepatocytes [2]: 40 % of RC1; Inhibition Rifampicine [2]: 96 % inhibition; Uptake into OATP1B1-HEK 293 cells (OATP1B1): 229 % of RC1; Inhibition Rifampicine (OATP1B1): 87 % inhibition; Solubility [3]: >0.261 mol/L; r1 water [4]: 4.1 L/mmol/s; r1 human plasma [5]: 8.8 L/mmol/s

Question: With `CCOCCOCCOc1ccc(CCC[C@H](C(=O)O)N2CCN([C@@H](CO)C(=O)[O-])CCN([C@@H](CO)C(=O)[O-])CCN([C@@H](CO)C(=O)[O-])CC2)cc1.[Gd+3]` [Example 18, gadolinium (2S,2'S,2″'S)-2,2′,2″-{10-[(1R)-1-carboxy-4-{4-[2-(2-ethoxyethoxy)ethoxy]phenyl}butyl]-1,4,7,10-tetraazacyclododecane-1,4,7-triyl}tris(3-hydroxypropanoate)] as the compound, how does the “Log P (partition coefficient butanol/buffer)” value [6] read?
Answer: Its value is −1.11.

Question: What about the “Inhibition Rifampicine” value (OATP1B3) of the same compound?
Answer: Its value is 96 % inhibition.

Question: And the Uptake rat hepatocytes [2]?
Answer: The Uptake rat hepatocytes was 75 % of RC1.

Question: What about the “Inhibition Rifampicine” value [2] of the same compound?
Answer: Its value is 91 % inhibition.

Question: And the “Inhibition Rifampicine” value (OATP1B1)?
Answer: The value was 76 % inhibition.

Question: And the Solubility [3]?
Answer: Its Solubility is greater than 0.354 mol/L.

Question: And the r1 water [4]?
Answer: The r1 water was 5.5 L/mmol/s.

Question: What about the r1 human plasma [5] of the same compound?
Answer: Its r1 human plasma is 7.7 L/mmol/s.
